Test results reported in patent US7323541B2, “Polypeptide DNA thereof and use of the same” (Takeda Pharmaceutical Company Limited, priority 2001, dated 2008).
Residue numbers refer to the chain shown, from its start. Where no end group is shown, it is not given here.

Legend:
[1] = system: human colon cancer cell line LS 174T; experiment: Growth of carcinomas of LS 174T in nude mice; type: in vivo, nude mice (BALB/cAnN-nu); settings: osmotic pump 48 nmol/day for 14 days, 11th to 20th day, vs distilled water
Experimental: Effects on the growth of carcinomas by the human TGR23-2 ligand (1-20) in nude mice of human colon cancer cell line LS 174T were investigated.
The LS 174T dissolved in PBS (phosphate buffered saline) was subcutaneously administered at the ratio of 4×10^6 cells/200 μl/mouse to left abdominal of female nude mice (BALB/cAnN-nu, six weeks old). After three hours of administration, 100 μl of the human TGR23-2 ligand (1-20) dissolved in Otsuka distilled water at the concentration of 2 mM, or Otsuka distilled water was filled in the Micro-Osmotic Pump (alza, model 1002), and further embedded under the skin in the back of mouse under anesthesia (n=10 per each group). From this day, the human TGR23-2 ligand (1-20) was continuously released for 14 days at 48 nmol/day. From the third day of administration, dimensions of the carcinoma were measured, and carcinoma volume was calculated based on the formula: (major axis)×(minor axis)^2/2.

[2] = target: T1, human TGR23-1B expressing CHO cells (Homo sapiens, UniProt Q6W5P4, N107I/S241R); experiment: Intracellular Ca ion concentration increasing activity using FLIPR; type: cell-based
T1 construct: expressed in transfected cells; host or cells: CHO dhfr- cells, pAKKO-TGR23-1B, clone No. 59
T1 sequence (Q6W5P4 1-371 N107I/S241R): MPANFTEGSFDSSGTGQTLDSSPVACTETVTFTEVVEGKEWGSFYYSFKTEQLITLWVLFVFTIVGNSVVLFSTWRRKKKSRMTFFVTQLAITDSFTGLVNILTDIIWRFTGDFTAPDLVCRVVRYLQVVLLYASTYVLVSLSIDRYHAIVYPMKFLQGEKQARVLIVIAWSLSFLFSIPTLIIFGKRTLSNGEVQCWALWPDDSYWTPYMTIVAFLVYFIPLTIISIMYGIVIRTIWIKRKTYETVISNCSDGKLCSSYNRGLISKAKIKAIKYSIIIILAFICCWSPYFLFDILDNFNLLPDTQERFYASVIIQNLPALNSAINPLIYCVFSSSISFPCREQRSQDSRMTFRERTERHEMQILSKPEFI
Experimental: (§1) An enhancing activity of intracellular Ca^2+ release was assayed using FLIPR (Molecular Devices, Inc.). The CHO/TGR23-2 cells prepared in Example 1 and selected in Example 2 were plated on 96-well plate at 3×10^4 cells/well and cultured for 24 hours. A loading buffer was prepared by adding 1 vial of Fluo 3-AM to 10 ml of Hanks' solution (pH7.4) containing 2.5 mM Probenecid and 20 mM HEPES (hereafter, Hanks' solution (pH7.4) containing 2.5 mM Probenecid and 20 mM HEPES may be referred to as a washing buffer). The culture medium was discarded from the culture plate and 100 μl/well of the loading buffer were added to the cells. Then, the cells were incubated for 60 minutes in the incubator. After the loading buffer was removed from the culture plate and the cells were washed with the washing buffer, the plate was put in place of FLIPR. A sample was prepared by adding a sample buffer, which 2 mg/ml BSA and 1 mg/ml CHAPS were added to the washing buffer, to lyophilized product, stirring and treating by ultrasonication for 30 minutes, and transferred to 96-well sample plate. This sample plate was also put in place for assay. The enhancing activity of intracellular Ca^2+ release was measured as an increase of fluorescent intensity, which is raised by addition of the sample.
(§2) The human TGR23-2 ligand (1-20) having various concentrations was administered in accordance with the method described in Example 5, to the CHO cells, in which human TGR23-1A, human TGR23-1B, human TGR23-1C and human TGR23-1D are expressed. Subsequently, the intracellular Ca ion concentration increasing activity was measured using FLIPR.

[3] = target: T2, human TGR23-1A expressing CHO cells (Homo sapiens, UniProt Q6W5P4, S241R); experiment: as above; type: cell-based
T2 construct: expressed in transfected cells; host or cells: CHO dhfr- cells, pAKKO-TGR23-1A, clone No. 60
T2 sequence (Q6W5P4 1-371 S241R): T1 sequence (Q6W5P4 1-371 N107I/S241R) with I107N
Experimental: as §1, §2

[4] = target: T3, human TGR23-1C expressing CHO cells (Homo sapiens, UniProt Q6W5P4, N107I); experiment: as above; type: cell-based
T3 construct: expressed in transfected cells; host or cells: CHO dhfr- cells, pAKKO-TGR23-1C, clone No. 9
T3 sequence (Q6W5P4 1-371 N107I): T1 sequence (Q6W5P4 1-371 N107I/S241R) with R241S
Experimental: as §1, §2

What does the source list for “SFRNGVGTGMKKTSFQRAKS [human TGR23-2 ligand (1-20)]”?
carcinoma volume of LS 174T [1]: has a tendency to increase; intracellular Ca ion concentration increasing activity [2]: the intracellular Ca ion level increased depending on the concentration of this ligand; intracellular Ca ion concentration increasing activity [3]: the intracellular Ca ion level increased depending on the concentration of this ligand; intracellular Ca ion concentration increasing activity [4]: the intracellular Ca ion level increased depending on the concentration of this ligand
